Target: T1, Human SST5 somatostatin receptor (Homo sapiens, UniProt P35346)
T1 construct: expressed in transfected cells; host or cells: HEK-293 EBNA cells (membranes)
Experiment: Filter plate radio-ligand binding assay for SST5 receptor ([125I]SST-14 displacement)
Conditions: 3P library; for % SST5 radio-ligand binding displaced at conc 0.25: conc 0.25 μM; for % SST5 radio-ligand binding displaced at conc 1.0: conc 1.0 μM; for % SST5 radio-ligand binding displaced at conc 50: conc 50 μM; for % SST5 radio-ligand binding displaced at conc 250: conc 250 μM; for % SST5 radio-ligand binding displaced at conc 500: conc 500 μM

T1 sequence (P35346 whole entry): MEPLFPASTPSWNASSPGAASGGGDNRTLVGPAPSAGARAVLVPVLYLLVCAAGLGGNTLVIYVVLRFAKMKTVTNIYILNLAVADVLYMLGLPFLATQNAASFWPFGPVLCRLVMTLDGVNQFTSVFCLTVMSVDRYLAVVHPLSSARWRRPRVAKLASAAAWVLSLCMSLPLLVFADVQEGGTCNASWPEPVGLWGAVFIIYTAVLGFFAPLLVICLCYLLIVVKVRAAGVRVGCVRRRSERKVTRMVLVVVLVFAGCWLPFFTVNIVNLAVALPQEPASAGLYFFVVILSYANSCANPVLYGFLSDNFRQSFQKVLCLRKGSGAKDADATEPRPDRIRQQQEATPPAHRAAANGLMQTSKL

SMILES: COC[C@H]1O[C@H](OCc2ccc3ccccc3c2)[C@H](NC(=O)CCCN)[C@@H](OCc2nccc3ccccc23)[C@@H]1O [Compound 149]
- % SST5 radio-ligand binding displaced at conc 0.25: − (% SST5 radio-ligand binding displaced at cone (μM) −<40%)
- % SST5 radio-ligand binding displaced at conc 1.0: + (% SST5 radio-ligand binding displaced at cone (μM) 60>+>40%)

SMILES: COC[C@H]1O[C@H](OCc2ccc3ccccc3c2)[C@H](NC(=O)CCCN)[C@@H](OCc2ccc(Cl)c(Cl)c2)[C@@H]1O [Compound 150]
- % SST5 radio-ligand binding displaced at conc 0.25: ++ (% SST5 radio-ligand binding displaced at conc (μM) >60%)
- % SST5 radio-ligand binding displaced at conc 1.0: ++ (% SST5 radio-ligand binding displaced at conc (μM) >60%)

SMILES: COC[C@H]1O[C@H](OCc2ccc3ccccc3c2)[C@H](NC(=O)CCCN)[C@@H](OCc2cccc3ccccc23)[C@@H]1O [Compound 151]
- % SST5 radio-ligand binding displaced at conc 0.25: + (% SST5 radio-ligand binding displaced at cone (μM) 60>+>40%)
- % SST5 radio-ligand binding displaced at conc 1.0: ++ (% SST5 radio-ligand binding displaced at conc (μM) >60%)

SMILES: COC[C@H]1O[C@H](OCc2ccc3ccccc3c2)[C@H](NC(=O)CCCN)[C@@H](OCc2ccc(Cl)cc2Cl)[C@@H]1O [Compound 152]
- % SST5 radio-ligand binding displaced at conc 0.25: + (% SST5 radio-ligand binding displaced at cone (μM) 60>+>40%)
- % SST5 radio-ligand binding displaced at conc 1.0: ++ (% SST5 radio-ligand binding displaced at conc (μM) >60%)

SMILES: COC[C@H]1O[C@H](OCc2ccc3ccccc3c2)[C@H](NC(=O)CCCN)[C@@H](OCc2ccc3ccccc3n2)[C@@H]1O [Compound 153]
- % SST5 radio-ligand binding displaced at conc 0.25: ++ (% SST5 radio-ligand binding displaced at conc (μM) >60%)
- % SST5 radio-ligand binding displaced at conc 1.0: ++ (% SST5 radio-ligand binding displaced at conc (μM) >60%)

SMILES: COC[C@H]1O[C@H](OCc2ccc3ccccc3c2)[C@H](NC(=O)CCCN)[C@@H](OCc2cccc(Cl)c2Cl)[C@@H]1O [Compound 154]
- % SST5 radio-ligand binding displaced at conc 0.25: ++ (% SST5 radio-ligand binding displaced at conc (μM) >60%)
- % SST5 radio-ligand binding displaced at conc 1.0: ++ (% SST5 radio-ligand binding displaced at conc (μM) >60%)

SMILES: COC[C@H]1O[C@H](OCc2ccc3ccccc3c2)[C@H](NC(=O)CCCN)[C@@H](OCc2ccc(Oc3ccccc3)cc2)[C@@H]1O [Compound 155]
- % SST5 radio-ligand binding displaced at conc 0.25: ++ (% SST5 radio-ligand binding displaced at conc (μM) >60%)
- % SST5 radio-ligand binding displaced at conc 1.0: ++ (% SST5 radio-ligand binding displaced at conc (μM) >60%)

SMILES: COC[C@H]1O[C@H](OCc2ccc(Cl)cc2)[C@H](NC(=O)CN)[C@@H](OC)[C@@H]1O [Compound 156]
- % SST5 radio-ligand binding displaced at conc 50: − (% SST5 radio-ligand binding displaced at cone (μM) −<40%)
- % SST5 radio-ligand binding displaced at conc 250: − (% SST5 radio-ligand binding displaced at cone (μM) −<40%)
- % SST5 radio-ligand binding displaced at conc 500: − (% SST5 radio-ligand binding displaced at cone (μM) −<40%)

SMILES: COC[C@H]1O[C@@H](OCc2ccc(Cl)cc2)[C@H](NC(=O)CN)[C@@H](OC)[C@@H]1O [Compound 157]
- % SST5 radio-ligand binding displaced at conc 50: − (% SST5 radio-ligand binding displaced at cone (μM) −<40%)
- % SST5 radio-ligand binding displaced at conc 250: − (% SST5 radio-ligand binding displaced at cone (μM) −<40%)
- % SST5 radio-ligand binding displaced at conc 500: − (% SST5 radio-ligand binding displaced at cone (μM) −<40%)

SMILES: COC[C@H]1O[C@H](OCc2ccc(Cl)cc2)[C@H](NC(=O)CN)[C@H](OC)[C@@H]1O [Compound 158]
- % SST5 radio-ligand binding displaced at conc 50: − (% SST5 radio-ligand binding displaced at cone (μM) −<40%)
- % SST5 radio-ligand binding displaced at conc 250: − (% SST5 radio-ligand binding displaced at cone (μM) −<40%)
- % SST5 radio-ligand binding displaced at conc 500: − (% SST5 radio-ligand binding displaced at cone (μM) −<40%)

SMILES: COC[C@H]1O[C@@H](OCc2ccc(Cl)cc2)[C@H](NC(=O)CN)[C@H](OC)[C@@H]1O [Compound 159]
- % SST5 radio-ligand binding displaced at conc 50: − (% SST5 radio-ligand binding displaced at cone (μM) −<40%)
- % SST5 radio-ligand binding displaced at conc 250: − (% SST5 radio-ligand binding displaced at cone (μM) −<40%)
- % SST5 radio-ligand binding displaced at conc 500: − (% SST5 radio-ligand binding displaced at cone (μM) −<40%)

Source: US8426345B2, “Method of drug design” (Alchemia Limited, priority 2005, dated 2013)
